Measured values as given in ChEMBL document CHEMBL1201862, “PubChem BioAssay data set” (2004).
Blank lines part the entries; values can stand above or below the compound they belong to. Calls of active or inactive are those of the source.

Key:
[1] = biological target: T1, Tyrosine-protein phosphatase non-receptor type 22 (Homo sapiens, UniProt Q9Y2R2); experiment: SAR LYP1 Fluorescent Assay using OMFP substrate for In Vitro dose response studies - Set 3. [Related pubchem assays (depositor defined):AID1779, AID1784, AID2140, AID2686]; type: functional
[2] = biological target: T2, Tyrosine-protein phosphatase non-receptor type 7 (Homo sapiens, UniProt P35236); experiment: HePTP (PTPN7) phosphatase inhibitor potency, SAR follow-up, biochemical, set 2 (AID 449736); type: functional
T2 sequence (P35236 whole entry): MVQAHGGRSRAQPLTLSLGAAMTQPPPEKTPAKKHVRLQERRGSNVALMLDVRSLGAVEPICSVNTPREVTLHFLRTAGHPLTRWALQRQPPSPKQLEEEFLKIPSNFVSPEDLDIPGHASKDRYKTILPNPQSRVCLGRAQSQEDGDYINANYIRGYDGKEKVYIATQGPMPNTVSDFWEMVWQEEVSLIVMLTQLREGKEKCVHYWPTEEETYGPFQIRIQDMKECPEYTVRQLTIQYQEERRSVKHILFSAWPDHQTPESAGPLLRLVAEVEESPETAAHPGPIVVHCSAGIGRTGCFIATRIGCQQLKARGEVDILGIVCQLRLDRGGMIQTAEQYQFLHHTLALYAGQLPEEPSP

[3] = biological target: Dual specificity protein phosphatase 6 (Rattus norvegicus, UniProt Q64346); type: functional;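 further: confirmatory in vitro dose-response testing of MKP-3 inhibition; recombinant His-tagged MKP-3 made in E. coli BL21 with OMFP substrate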
[4] = biological target: T2, Tyrosine-protein phosphatase non-receptor type 7; experiment: redox-dependent HePTP inhibition, mechanism study, biochemical, fluorescence (AID 2068); type: functional
[5] = biological target: Tyrosine-protein phosphatase non-receptor type 12 (Homo sapiens, UniProt Q05209); experiment: SAR Selectivity Analysis of small molecule inhibitors of PEST using pCAP in a fluorescence assay. [Related pubchem assays (depositor defined):AID1779, AID1784, AID2135]; type: functional
[6] = biological target: T1, Tyrosine-protein phosphatase non-receptor type 22; experiment: LYP (PTPN22) phosphatase inhibitor potency, SAR follow-up, biochemical, pCAP fluorogenic substrate, fluorescence, set 3 (AID 449727); type: functional
[7] = biological target: T3, Short transient receptor potential channel 4 (Mus musculus, UniProt Q9QUQ5); experiment: TRPC4 inhibitor concentration-response, dose response, cell-based, HEK293 TRPC4/mu-opioid, DAMGO stimulus, Fluo-4 (AID 492994); type: functional
T3 sequence (Q9QUQ5 whole entry): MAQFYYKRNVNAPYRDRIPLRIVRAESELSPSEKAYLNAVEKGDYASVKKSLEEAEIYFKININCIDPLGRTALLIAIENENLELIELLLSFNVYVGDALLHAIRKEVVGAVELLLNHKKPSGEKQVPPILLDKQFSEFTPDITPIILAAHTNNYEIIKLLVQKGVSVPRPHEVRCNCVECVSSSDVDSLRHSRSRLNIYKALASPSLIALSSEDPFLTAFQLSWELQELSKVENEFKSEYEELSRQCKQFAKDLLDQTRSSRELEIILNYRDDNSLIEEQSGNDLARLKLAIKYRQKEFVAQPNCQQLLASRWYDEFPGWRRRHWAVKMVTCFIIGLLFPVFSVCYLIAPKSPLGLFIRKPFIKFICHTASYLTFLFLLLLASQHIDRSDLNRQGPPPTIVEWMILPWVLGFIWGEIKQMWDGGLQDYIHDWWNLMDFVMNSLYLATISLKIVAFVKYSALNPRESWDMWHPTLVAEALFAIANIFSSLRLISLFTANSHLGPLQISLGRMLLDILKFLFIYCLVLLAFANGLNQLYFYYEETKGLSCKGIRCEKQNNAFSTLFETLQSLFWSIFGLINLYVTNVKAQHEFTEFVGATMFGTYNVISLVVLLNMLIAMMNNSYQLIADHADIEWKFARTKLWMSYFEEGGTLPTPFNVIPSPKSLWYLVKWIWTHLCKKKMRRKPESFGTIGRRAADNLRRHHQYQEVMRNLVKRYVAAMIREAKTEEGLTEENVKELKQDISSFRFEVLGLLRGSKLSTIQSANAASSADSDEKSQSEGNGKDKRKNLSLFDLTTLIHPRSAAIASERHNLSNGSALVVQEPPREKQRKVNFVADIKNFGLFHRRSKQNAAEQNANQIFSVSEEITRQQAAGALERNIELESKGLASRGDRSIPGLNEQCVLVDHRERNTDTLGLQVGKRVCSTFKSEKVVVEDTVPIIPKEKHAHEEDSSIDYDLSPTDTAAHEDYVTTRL

[8] = biological target: T3, Short transient receptor potential channel 4; experiment: SAR Analysis for the identification of selective inhibits of the transient receptor potential cation channel C4 (TRPC4): Automated Electrophysiology_2. [Related pubchem assays (depositor defined):AID2256]; type: functional
BJ [9] = experiment: cytotoxicity toward BJ-TERT fibroblasts, dose response, cell-based, RAS-independent, luminescence (AID 1933); type: functional; conditions: Homo sapiens
A-375 = experiment: MITF: Counter assay: A375 proliferation Measured in Cell-Based System Using Plate Reader - 2084-03_Inhibitor_Dose_DryPowder_Activity. [Related pubchem assays (depositor defined):AID488944]; type: functional; conditions: Homo sapiens
[10] = biological target: T4, Heat shock factor protein 1 (Mus musculus, UniProt P38532); experiment: inhibition of MG132-induced HSE-luciferase signal, confirmation, cell-based, NIH3T3, luminescence, dose retest (AID 2382); type: functional;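 further: NIH3T3 fibroblasts with HSF1-driven luciferase reporter stressed by proteasome inhibitor MG132; luminescence from HSF1-driven luciferase expression after 8 hours of MG132 stress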
T4 sequence (P38532 whole entry): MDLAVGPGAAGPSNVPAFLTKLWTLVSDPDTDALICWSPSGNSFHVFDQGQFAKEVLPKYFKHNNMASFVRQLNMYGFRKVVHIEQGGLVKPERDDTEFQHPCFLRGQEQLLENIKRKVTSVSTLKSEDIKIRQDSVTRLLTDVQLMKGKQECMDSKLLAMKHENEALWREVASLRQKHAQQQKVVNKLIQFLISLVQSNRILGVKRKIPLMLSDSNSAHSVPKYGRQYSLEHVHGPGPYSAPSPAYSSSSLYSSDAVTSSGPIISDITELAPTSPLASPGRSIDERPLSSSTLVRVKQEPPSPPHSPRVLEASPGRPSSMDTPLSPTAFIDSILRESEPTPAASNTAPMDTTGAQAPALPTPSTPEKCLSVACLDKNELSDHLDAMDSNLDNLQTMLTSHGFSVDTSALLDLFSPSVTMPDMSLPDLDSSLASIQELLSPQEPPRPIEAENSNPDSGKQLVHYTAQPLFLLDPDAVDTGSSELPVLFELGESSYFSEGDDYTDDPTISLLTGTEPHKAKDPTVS

BJ [11] = experiment: cells; type: functional, cell-based; conditions: Homo sapiens
[12] = biological target: DNA damage-inducible transcript 3 protein (Mus musculus, UniProt P35639); type: functional, Cricetulus griseus
[13] = cytotoxicity toward DRD oncogenic fibroblasts, dose response, cell-based, non-viral oncogenic, luminescence (AID 1934); type: functional; conditions: Homo sapiens
[14] = biological target: T5, Microphthalmia-associated transcription factor (Homo sapiens, UniProt O75030); experiment: TRPM1 promoter luciferase signal decrease, dose response, MITF inhibitor project, cell-based, SK-MEL-5, cherry-picked, set 3 (AID 493073); type: functional
T5 sequence (O75030 whole entry): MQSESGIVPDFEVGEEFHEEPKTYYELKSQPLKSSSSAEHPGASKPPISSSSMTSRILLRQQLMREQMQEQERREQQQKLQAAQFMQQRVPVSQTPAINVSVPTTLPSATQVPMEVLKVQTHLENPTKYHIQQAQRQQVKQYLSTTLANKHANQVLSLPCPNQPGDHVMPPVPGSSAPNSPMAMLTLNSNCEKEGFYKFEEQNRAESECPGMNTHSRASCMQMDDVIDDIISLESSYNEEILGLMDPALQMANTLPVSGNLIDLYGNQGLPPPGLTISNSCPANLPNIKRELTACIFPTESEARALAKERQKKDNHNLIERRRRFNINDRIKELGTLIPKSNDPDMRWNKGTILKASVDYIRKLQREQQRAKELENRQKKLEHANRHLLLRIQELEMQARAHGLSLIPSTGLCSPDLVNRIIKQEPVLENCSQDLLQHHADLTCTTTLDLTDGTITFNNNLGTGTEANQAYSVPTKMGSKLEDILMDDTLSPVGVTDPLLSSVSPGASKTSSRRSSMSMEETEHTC

BJ [15] = experiment: cytotoxicity toward BJ-TERT-LT-ST fibroblasts, dose response, cell-based, RAS-independent, luminescence (AID 1935); type: functional; conditions: Homo sapiens;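 further: BJ fibroblasts immortalized with TERT plus LT and ST oncogenes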
X-box-binding protein 1 = biological target: T6, X-box-binding protein 1 (Homo sapiens, UniProt P17861); type: functional, Cricetulus griseus;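 further: confirmatory dose-response counter-screen serving a CHOP assay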
T6 sequence (P17861 whole entry): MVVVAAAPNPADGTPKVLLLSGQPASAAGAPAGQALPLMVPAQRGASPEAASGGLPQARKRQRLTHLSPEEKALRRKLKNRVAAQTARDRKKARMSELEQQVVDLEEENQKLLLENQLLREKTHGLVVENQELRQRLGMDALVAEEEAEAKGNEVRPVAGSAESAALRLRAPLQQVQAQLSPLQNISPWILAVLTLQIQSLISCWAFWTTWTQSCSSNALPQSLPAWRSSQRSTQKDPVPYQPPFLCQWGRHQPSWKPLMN

CAAX prenyl protease 2 [16] = biological target: CAAX prenyl protease 2 (Saccharomyces cerevisiae S288c, UniProt Q03530); type: biochemical
CAAX prenyl protease 2 [17] = biological target: CAAX prenyl protease 2 (Homo sapiens, UniProt Q9Y256); experiment: human Rce1 protease inhibitors, dose response, biochemical, yeast membranes, quenched-peptide fluorescence, cherry-pick (AID 588849)
Trypsin = Trypsin (Sus scrofa, UniProt P00761); experiment: porcine trypsin inhibitors, dose response, selectivity assay for Rce1 protease inhibitor project, biochemical, quenched peptide fluorescence, cherry-pick (AID 488789)
Trypsin, sequence (P00761 whole entry): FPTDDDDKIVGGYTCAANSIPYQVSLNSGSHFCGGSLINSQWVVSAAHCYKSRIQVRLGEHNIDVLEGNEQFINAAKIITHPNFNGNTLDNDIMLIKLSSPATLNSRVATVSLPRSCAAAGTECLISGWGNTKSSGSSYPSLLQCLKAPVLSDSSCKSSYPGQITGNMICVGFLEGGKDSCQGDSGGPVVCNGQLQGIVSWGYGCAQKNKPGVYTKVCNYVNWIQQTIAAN

T1 sequence (Q9Y2R2 whole entry): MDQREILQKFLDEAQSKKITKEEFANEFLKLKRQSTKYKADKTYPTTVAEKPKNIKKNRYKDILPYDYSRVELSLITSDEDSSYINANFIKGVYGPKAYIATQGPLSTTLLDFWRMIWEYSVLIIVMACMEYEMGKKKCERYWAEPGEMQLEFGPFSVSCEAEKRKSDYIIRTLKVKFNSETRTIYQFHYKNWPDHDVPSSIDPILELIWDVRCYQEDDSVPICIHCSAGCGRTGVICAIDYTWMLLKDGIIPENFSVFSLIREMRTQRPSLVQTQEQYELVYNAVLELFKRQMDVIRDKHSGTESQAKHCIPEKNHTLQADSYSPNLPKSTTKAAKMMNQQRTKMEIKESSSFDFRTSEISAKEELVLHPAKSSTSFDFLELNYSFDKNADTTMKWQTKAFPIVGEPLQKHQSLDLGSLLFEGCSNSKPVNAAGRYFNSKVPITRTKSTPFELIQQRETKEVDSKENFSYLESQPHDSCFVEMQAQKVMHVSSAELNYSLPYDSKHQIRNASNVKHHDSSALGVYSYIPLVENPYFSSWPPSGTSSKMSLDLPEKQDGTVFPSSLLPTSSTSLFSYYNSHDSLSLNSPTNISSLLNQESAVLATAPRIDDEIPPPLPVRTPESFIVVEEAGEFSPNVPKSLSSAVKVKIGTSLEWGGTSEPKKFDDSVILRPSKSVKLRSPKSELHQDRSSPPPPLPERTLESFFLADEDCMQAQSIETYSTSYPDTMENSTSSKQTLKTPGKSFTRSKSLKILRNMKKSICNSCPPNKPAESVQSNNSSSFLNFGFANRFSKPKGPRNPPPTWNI
Tyrosine-protein phosphatase non-receptor type 12, sequence (Q05209 whole entry): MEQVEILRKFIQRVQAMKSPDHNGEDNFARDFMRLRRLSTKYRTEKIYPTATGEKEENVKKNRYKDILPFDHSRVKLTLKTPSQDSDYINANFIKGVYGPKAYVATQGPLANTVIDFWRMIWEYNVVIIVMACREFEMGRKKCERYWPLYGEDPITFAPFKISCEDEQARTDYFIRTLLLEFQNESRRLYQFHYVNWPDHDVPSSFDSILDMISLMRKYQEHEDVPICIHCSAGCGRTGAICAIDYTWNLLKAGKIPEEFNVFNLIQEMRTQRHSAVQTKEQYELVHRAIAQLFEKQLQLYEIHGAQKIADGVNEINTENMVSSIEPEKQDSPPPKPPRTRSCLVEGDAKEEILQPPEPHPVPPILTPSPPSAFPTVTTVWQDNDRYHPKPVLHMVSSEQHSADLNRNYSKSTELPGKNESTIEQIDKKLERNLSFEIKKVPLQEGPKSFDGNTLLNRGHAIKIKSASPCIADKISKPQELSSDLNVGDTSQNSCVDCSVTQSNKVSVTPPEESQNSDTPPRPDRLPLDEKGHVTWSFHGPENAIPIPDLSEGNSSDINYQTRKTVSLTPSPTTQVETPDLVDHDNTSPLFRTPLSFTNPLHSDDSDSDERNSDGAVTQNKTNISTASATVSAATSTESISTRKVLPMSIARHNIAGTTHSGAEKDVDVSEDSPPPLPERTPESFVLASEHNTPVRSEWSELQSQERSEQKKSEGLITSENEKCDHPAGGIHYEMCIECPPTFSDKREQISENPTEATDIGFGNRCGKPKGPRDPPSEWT
DNA damage-inducible transcript 3 protein, sequence (P35639 whole entry): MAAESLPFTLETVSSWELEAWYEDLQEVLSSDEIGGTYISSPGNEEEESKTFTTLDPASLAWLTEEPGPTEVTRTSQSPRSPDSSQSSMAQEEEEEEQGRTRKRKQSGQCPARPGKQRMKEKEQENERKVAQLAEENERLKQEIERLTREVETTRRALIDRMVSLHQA
CAAX prenyl protease 2 (Homo sapiens, UniProt Q9Y256), sequence (Q9Y256 whole entry): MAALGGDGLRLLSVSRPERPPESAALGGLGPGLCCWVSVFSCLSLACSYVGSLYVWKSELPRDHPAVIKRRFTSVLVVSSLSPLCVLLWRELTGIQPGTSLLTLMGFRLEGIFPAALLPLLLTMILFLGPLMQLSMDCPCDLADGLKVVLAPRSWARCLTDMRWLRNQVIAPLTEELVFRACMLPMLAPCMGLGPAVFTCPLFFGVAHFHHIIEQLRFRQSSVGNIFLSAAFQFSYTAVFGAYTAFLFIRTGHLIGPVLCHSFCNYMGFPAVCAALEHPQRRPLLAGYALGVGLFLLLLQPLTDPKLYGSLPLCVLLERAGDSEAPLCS
CAAX prenyl protease 2 (Saccharomyces cerevisiae S288c, UniProt Q03530), sequence (Q03530 whole entry): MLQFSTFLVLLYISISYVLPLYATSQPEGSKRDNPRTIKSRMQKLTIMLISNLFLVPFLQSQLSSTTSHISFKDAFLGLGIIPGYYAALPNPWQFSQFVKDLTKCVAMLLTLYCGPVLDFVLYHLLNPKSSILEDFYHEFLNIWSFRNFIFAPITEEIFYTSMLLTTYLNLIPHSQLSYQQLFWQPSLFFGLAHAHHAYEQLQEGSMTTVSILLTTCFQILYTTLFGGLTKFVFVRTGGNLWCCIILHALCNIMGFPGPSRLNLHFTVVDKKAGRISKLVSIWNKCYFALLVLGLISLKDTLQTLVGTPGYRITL
Dual specificity protein phosphatase 6, sequence (Q64346 whole entry): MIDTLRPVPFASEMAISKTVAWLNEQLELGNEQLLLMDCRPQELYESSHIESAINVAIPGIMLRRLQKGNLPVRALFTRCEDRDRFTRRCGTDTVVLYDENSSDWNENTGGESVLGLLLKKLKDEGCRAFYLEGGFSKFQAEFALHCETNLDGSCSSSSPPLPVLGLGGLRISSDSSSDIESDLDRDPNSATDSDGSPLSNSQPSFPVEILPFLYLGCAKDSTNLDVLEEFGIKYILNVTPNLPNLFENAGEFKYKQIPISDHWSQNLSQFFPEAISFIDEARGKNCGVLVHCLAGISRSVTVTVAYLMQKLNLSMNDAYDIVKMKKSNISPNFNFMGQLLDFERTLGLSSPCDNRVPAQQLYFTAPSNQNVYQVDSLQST

IC50 [1]: 77.5 µM (active) | IC50 [2]: 0.45 µM (active) | IC50 [3]: > 99 µM (inactive) | IC50 [4]: 30.2 µM (active) | IC50 [5]: 9.45 µM (active) | IC50 [6]: 83.8 µM (active)
SMILES: CC(C)(Oc1ccc2sc3ccccc3c2c1)C(=O)O

IC50 [7]: 12 µM (active) | IC50 [8]: 24.5 µM (active)
SMILES: Cc1cc(N2CCOc3ccccc32)nc2ccccc12

SMILES: O=C(N/N=C/c1ccccc1Cl)c1[nH]nc2c1CCCC2
EC50 (BJ [9]): 16.4 µM (active) | AC50 (A-375): 48.5 µM (active) | EC50 [10]: 16 µM (active) | EC50 (BJ [11]): 18.2 µM (active) | Absolute IC50 (CHOP) [12]: 10 µM | EC50 [13]: 15.8 µM (active) | AC50 [14]: 7.97 µM (active) | EC50 (BJ [15]): > 150 µM (inconclusive) | Absolute IC50 (XBP1) (X-box-binding protein 1): 10 µM

AC50 (CAAX prenyl protease 2 [16]): 24.8 µM (active) | AC50 (CAAX prenyl protease 2 [17]): 13.6 µM (active) | AC50 (Trypsin): 7.25 µM (active)
SMILES: CCN(CC)c1ccc(/C=N/NC(=S)NCc2ccc(OC)cc2)cc1
